Reference: patent US11702419B2, “Heterocyclic compound and use thereof” (Takeda Pharmaceutical Company Limited, priority 2018, dated 2023)

Biological target: T1, NMDA receptor composed of four subunits consisting of two sets of heterodimers of NR1 and NR2B (human GRIN1 and GRIN2B-expressing HEK293 cells) (Homo sapiens, UniProt Q13224)
T1 construct: host or cells: HEK293 (tetracycline-inducible expression)
Experiment: NR2B Ca2+ influx assay
Assay type: cell-based
Conditions: 10 μM compound, glutamic acid/glycine-induced Ca2+ influx, FLIPR, read-out: inhibitory rate (10 μM compound concentration)
Method: In order to confirm an “antagonistic action on an NMDA receptor containing the NR2B subunit” which the compound of the present invention has, inhibitory effect on the NMDA receptor activation was evaluated using “NMDA receptor composed of four subunits consisting of two sets of heterodimers of NR1 and NR2B”-expressing human fetal renal cells, specifically human glutamate ionotropic receptor NMDA type subunit 1 (GRIN1) and human glutamate ionotropic receptor NMDA type subunit 2B (GRIN2B)-expressing HEK293 cells.
As an index of the NMDA receptor activation, intracellular calcium ion (Ca^2+) influx caused by bonding of glycine and glutamate to NR1 and NR2B respectively was used. HEK293 cells were purchased from ChanTest. The cells were cultured in a DMEM/F-12 (COSMO BIO, 10-092-CM) medium containing 10% FBS (fetal bovine serum, AusGene), 100 units/mL penicillin, 100 μg/mL streptomycin, 500 μg/mL neomycin, 100 μg/mL Zeocin and 5 μg/mL Blasticidin at 37° C., 5% CO2. The cells were detached from flask with trypsin the day before the assay, suspended in a seeding medium (DMEM (Invitrogen, 31053) containing 10% FBS, 100 units/mL penicillin and 100 μg/mL streptomycin) at 8×10^5 cells/mL, seeded by 25 μL per well in a 384-well plate (Falcon, 356663) at 20000 cells/well, and cultured overnight in an incubator. On the day of the assay, tetracycline (Wako Pure Chemical Industries, 209-16561) was diluted with the seeding medium at 2 μg/mL, and the dilution was added at 25 μL/well to the plate seeded with the cells, and the cells were cultured for 2 hr in an incubator. Thereafter, the medium was removed, and the cells were washed with 50 μL/well of assay buffer (137 mM NaCl, 4 mM KCl, 1.8 mM CaCl2, 10 mM HEPES (pH 7.2), 10 mM Glucose, and 0.1% BSA). Then, a loading buffer (assay buffer containing 2.5 μM Fluo-4AM, 2 mM Amaranth and 1 mM Tartrazine) was added thereto at 25 μL/well, and loading was performed in the incubator for 30 min, and then at room temperature for 15 min. The test compound was diluted with the above-mentioned assay buffer so as to adjust the concentration to 30 μM, the obtained solution (25 μL) was added thereto (the final concentration 10 μM), and the cells were stood for 15 min at room temperature. Using FLIPR (Molecular Devices), 25 μL of an assay buffer containing 30 μM glutamic acid and 30 μM glycine was added thereto, and the fluorescence signal was measured every 3 seconds for 5 min. The relative activity value (inhibitory rate) was calculated when the cumulative total value of the fluorescence value of a well added with a buffer free of glutamic acid and glycine, relative to the cumulative total value of the fluorescence value of each well are regarded as 100% inhibition. The obtained value was evaluated as an inhibitory activity.

T1 sequence (Q13224 27-1484, other chains not shown): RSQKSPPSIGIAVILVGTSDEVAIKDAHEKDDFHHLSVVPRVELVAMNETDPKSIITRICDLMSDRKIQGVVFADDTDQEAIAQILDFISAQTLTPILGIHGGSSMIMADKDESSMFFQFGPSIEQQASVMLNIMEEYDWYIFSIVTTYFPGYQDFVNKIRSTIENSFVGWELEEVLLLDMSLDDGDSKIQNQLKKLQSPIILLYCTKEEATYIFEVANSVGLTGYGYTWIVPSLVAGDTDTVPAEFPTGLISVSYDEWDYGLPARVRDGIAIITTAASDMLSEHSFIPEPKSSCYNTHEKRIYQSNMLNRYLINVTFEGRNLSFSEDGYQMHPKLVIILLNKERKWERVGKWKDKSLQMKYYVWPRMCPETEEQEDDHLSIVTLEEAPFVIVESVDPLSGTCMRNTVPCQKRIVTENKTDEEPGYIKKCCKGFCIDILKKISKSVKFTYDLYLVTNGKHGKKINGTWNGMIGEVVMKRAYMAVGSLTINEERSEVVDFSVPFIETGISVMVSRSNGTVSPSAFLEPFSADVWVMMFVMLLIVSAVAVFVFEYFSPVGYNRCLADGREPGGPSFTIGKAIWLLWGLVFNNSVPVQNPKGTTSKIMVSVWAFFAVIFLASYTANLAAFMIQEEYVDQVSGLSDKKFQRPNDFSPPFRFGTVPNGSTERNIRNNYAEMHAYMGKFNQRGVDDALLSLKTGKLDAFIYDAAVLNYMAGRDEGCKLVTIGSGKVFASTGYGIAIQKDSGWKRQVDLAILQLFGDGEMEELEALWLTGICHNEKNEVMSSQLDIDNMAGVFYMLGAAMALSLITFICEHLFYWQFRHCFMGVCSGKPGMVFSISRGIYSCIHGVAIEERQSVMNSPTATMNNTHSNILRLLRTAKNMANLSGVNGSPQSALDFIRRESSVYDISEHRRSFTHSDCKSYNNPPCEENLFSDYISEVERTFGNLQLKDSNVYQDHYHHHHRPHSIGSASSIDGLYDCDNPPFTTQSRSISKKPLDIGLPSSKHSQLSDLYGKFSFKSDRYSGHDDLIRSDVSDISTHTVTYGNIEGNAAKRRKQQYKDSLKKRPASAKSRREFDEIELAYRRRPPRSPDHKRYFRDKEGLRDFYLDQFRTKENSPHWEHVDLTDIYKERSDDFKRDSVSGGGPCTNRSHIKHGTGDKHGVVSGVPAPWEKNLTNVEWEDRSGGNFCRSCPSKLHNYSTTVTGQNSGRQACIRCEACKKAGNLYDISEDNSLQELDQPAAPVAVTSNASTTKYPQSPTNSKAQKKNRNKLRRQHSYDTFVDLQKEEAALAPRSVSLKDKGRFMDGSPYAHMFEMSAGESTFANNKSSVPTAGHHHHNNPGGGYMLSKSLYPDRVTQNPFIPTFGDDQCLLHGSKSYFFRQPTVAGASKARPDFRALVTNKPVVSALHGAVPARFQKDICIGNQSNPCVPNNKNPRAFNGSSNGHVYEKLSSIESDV

Structure (SMILES)	inhibition at 10 µM [%]
COCc1nn2ncccc2c1CNC(=O)c1cnc(OC(F)F)c(F)c1 [Example 31, 6-(difluoromethoxy)-5-fIuoro-N-((2-(methoxymethyl)pyrazolo[1,5-b]pyridazin-3-yl)methyl)nicotinamide]	84
CCc1nn2ncccc2c1CNC(=O)c1ccc(OC(F)F)c(F)c1 [Example 27, 4-(difluoromethoxy)-N-((2-ethylpyrazolo[1,5-b]pyridazin-3-yl)methyl)-3-fluorobenzamide]	92
O=C(NCc1nnn2ccccc12)c1ccc(OC(F)F)c(Cl)c1 [Example 34, 3-chloro-4-(difluoromethoxy)-N-([1,2,3]triazolo[1,5-a]pyridin-3-ylmethyl)benzamide]	96
Cc1ccnn2ncc(CNC(=O)c3ccc(OC(F)F)c(F)c3)c12 [Example 36, 4-(difluoromethoxy)-3-fluoro-N-((4-methylpyrazolo[1,5-b]pyridazin-3-yl)methyl)benzamide]	97
O=C(NCc1nnn2ncccc12)c1ccc(OC(F)(F)F)c(F)c1 [Example 18, 3-fluoro-N-([1,2,3]triazolo[1,5-b]pyridazin-3-ylmethyl)-4-(trifluoromethoxy)benzamide]	98
CCOc1nn2ncccc2c1CNC(=O)c1cnc(OC(F)F)c(F)c1 [Example 24, 6-(difluoromethoxy)-N-((2-ethoxypyrazolo[1,5-b]pyridazin-3-yl)methyl)-5-fluoronicotinamide]	70
O=C(NCc1c(C2CC2)nn2ncccc12)c1cnc(OC(F)F)c(F)c1 [Example 28, N-((2-cyclopropylpyrazolo[1,5-b]pyridazin-3-yl)methyl)-6-(difluoromethoxy)-5-fluoronicotinamide]	85

The remaining lines, values ahead:

inhibition at 10 µM [%]	Structure (SMILES)
93	Cc1nn2ccn(C)c2c1CNC(=O)c1cnc(OC(F)F)c(F)c1 [Example 73, 6-(difluoromethoxy)-N-[(1,6-dimethyl-1H-imidazo[1,2-b]pyrazol-7-yl)methyl]-5-fluoropyridine-3-carboxamide]
96	Cc1ccnn2ncc(CNC(=O)c3cnc(OC(F)F)c(F)c3)c12 [Example 37, 6-(difluoromethoxy)-5-fluoro-N-((4-methylpyrazolo[1,5-b]pyridazin-3-yl)methyl)nicotinamide]
97	Cc1cnn2nnc(CNC(=O)c3cnc(OC(F)F)c(Cl)c3)c2c1 [Example 51, 5-chloro-6-(difluoromethoxy)-N-((5-methyl[1,2,3]triazolo[1,5-b]pyridazin-3-yl)methyl)nicotinamide]
91	Cc1nn2ncc(CNC(=O)c3cnc(OC(F)F)c(Cl)c3)c2n1C(F)F [Example 75, 5-chloro-6-(difluoromethoxy)-N-{[1-(difluoromethyl)-2-methyl-1H-pyrazolo[1,5-b][1,2,4]triazol-7-yl]methyl}pyridine-3-carboxamide]
97	Cc1cnn2ncc(CNC(=O)c3cnc(OC(F)F)c(F)c3)c2c1 [Example 39, 6-(difluoromethoxy)-5-fluoro-N-((5-methylpyrazolo[1,5-b]pyridazin-3-yl)methyl)nicotinamide]
85	Cc1nn2cnccc2c1CNC(=O)c1cnc(OC(F)F)c(Cl)c1 [Example 56, 5-chloro-6-(difluoromethoxy)-N-((2-methylpyrazolo[1,5-c]pyrimidin-3-yl)methyl)nicotinamide]
96	Cn1ccn2ncc(CNC(=O)c3ccc(OC(F)(F)F)nc3)c12 [Example 64, N-((1-methyl-1H-imidazo[1,2-b]pyrazol-7-yl)methyl)-6-(trifluoromethoxy)nicotinamide]
98	Cc1cnn2nnc(CNC(=O)c3ccc(OC(F)(F)F)c(F)c3)c2c1 [Example 49, 3-fluoro-N-((5-methyl[1,2,3]triazolo[1,5-b]pyridazin-3-yl)methyl)-4-(trifluoromethoxy)benzamide]
95	COc1c(F)cc(C(=O)NCc2cnn3ccn(C)c23)cc1F [Example 62, 3,5-difluoro-4-methoxy-N-((1-methyl-1H-imidazo[1,2-b]pyrazol-7-yl)methyl)benzamide]
